Laboratory results as given in patent US6512102B1, “Compositions and methods of diagnosis and treatment using casein kinase I” (Chiron Corporation, priority 1998, dated 2003).

Tested on: Lef-1 dependent transcription
Test: Lef-1 enhancer luciferase reporter assay in Cos cells
Type: cell-based
Settings: GSK3 over-expressed / cotransfected
Method: Combinations of Wnt-1, CKIε, CKI kinase dead variant (lys→arg 38) and Lef-1 were transfected into Cos cells with a luciferase gene driven by multiple copies of Lef enhancer elements. As an internal control of transfection efficiency, the β-galactosidase gene driven by the SV40 promoter was co-transfected in all samples. 24 hours after transfection, cells were lysed and the lysate was tested for luciferase activity. The luciferase activity was normalized with respect to β-galactosidase activity. […] Dorsoanterior index (DAI) grade numbers were assigned to the phenotypes of the embryos. A grade 5 embryo is normal; a grade 3 embryo is cyclopic (one eye); a grade 1 embryo has a tail fin and somites but no head (acephalic); and a grade 0 embryo has no dorsoanterior structures (Kao et al., 1988).
The effect of CKI on Lef-1 dependent transcription in Cos mammalian cells was examined. A luciferase reporter gene driven by multiple copies of the Lef-I enhancer sequence was used. When only Wnt-I or lef-I or CKIε was transfected with the reporter construct, luciferase activity was induced only 2 to 3 fold (FIG. 1A). When Lef-1 was cotransfected with either Wnt-1 or CKIε, luciferase activity was induced 30 or 12 fold respectively.
Luciferase reporter plasmid contains multiple Lef-I enhancer sites upstream of the fos basal promoter. […]

Substance: GSK3: GSK3 over-expressed from cotransfected plasmid [reference compound]
- luciferase activity transduced by CKIε: inhibited the effect of CKI in promoting transcription
